In patent US6662039B2, “Optical probing of neuronal connections with fluorescent indicators” (The Trustees of Columbia University in the City of New York, priority 1999, dated 2003):

Tested on: neurons in visual cortex brain slices
Experiment: Optical probing of cortical brain slices made more excitable by channel/receptor blockers
Type: cell-based, mouse
Settings: for effect on number of possible postsynaptic targets (follower cells): bath application to fura-2 AM loaded mouse cortical slice, trigger cell stimulated; for epileptiform events in imaged neurons: most or all imaged neurons show action-potential induced increases in [Ca2+]i
Description: This method consist of (i) loading (staining) populations of neurons in brain slices with fluorescent indicators such as fura-2 AM and (ii) imaging dozens of loaded cells during whole-cell stimulation of a particular neuron (the “trigger” cell). On-line analysis is used to determine if any other neurons (the “follower” cells) show a calcium transient time-locked to the firing of the “trigger” cell. After detection, a chosen “follower” cell is patched and a similar experiment is repeated. Histological processing is carried out on the fixed specimens. A detailed explanation of the experiment and some representative results follows.
Brain slices are made from the primary visual cortex of postnatal day (PND) 12-23 C57BL6 mice. Mice are anesthetized with Ketamine/Xylazine (120 mg/kg, 10 mg/kg respectively). Animals are decapitated and the brain is quickly removed and placed into cold ACSF (126 mM NaCl, 3 mM KCl, 26 mM NaHCO3, 1 mM NaH2PO4, 2 mM CaCl2, 2 mM MgSO4, 10 mM Dextrose, bubbled with 95% O2/5% CO2). Coronal slices, 300-400 μm thick, are cut using a vibratome (TPI) and are incubated at 35° C. for 30 minutes in a submerged slice chamber. Slices are then incubated at room temperature (˜25° C.) for up to 12 hours.
After loading, slices are placed in a submerged recording chamber mounted on the stage of an upright microscope (BX50WI, Olympus). All experiments are done at room temperature. Fluorescent images of fura-2 loaded neurons are taken with a cCCD camera (Micromax, Princeton Instruments) equipped with a frame transfer chip (EEV 512, Kodak) or an hexagonal photodiode array with 464 pixels (PDA, Universal Imaging). To maximize the number of imaged neurons a 20×/0.5 NA water immersion objective (Olympus) is used. Image acquisition is typically 25 msec/frame and each pixel is digitized at 12 bits. Camera images are acquired, stored and analyzed using a Macintosh 7100 (Apple Computers, Cupertino, Calif.) computer and IPLab software (Signal Analytics). Signals from the photodiodes are amplified, sampled at 1.6 KHz and analyzed using Neuroplex (Universal Imaging). For imaging of the calcium transients a 380 nm excitation, a 395 nm dichroic and a 510 emission filter (Chroma) are used. Also imaged is each neuron at the isosbestic excitation of 365 nm during every experiment to assess the approximate [Ca^2+]i and therefore monitor the health of the cells. The 365 nm images are used to estimate the intracellular concentration of fura-2, using the fluorescence of the patched cell (which has a known concentration of fura-2) as a calibration. For most neurons, after correcting for background fluorescence and focus, an intracellular concentration of indicator of approximately 40-50 μM was estimated. These values, obtained from experiments with good loading at PND 12-23, obviously depend crucially on many factors that affect loading, such as age, incubation time and health of the slices. Changes in fluorescence in multiple cells were analyzed with a program written in IPLab. The fluorescence change over time is defined as ΔF/F=(F0−F1)/(F0) and, for the analysis of the AM loaded cells fluorescence change was defined as ΔF/F=((F0−-B0)−(F1−B1))/(F0−B0), expressed in %, where F1 and B are fluorescence in the somata and background fluorescence, respectively, at any given timepoint, and F0 and B0 are fluorescence and background at the beginning of the experiment.
To maximize the effect of the stimulation of the trigger cell, different methods of enhancing synaptic release and also of making postsynaptic cells more excitable have been experimented with. Currently used is 3 mM [Ca^2+]e in our ACSF (artificial cerebrospinal fluid) because high [Ca^2+]e decreases synaptic failures and, by increasing the [Ca^2+] gradient between the inside and outside of the cell, it also produces bigger action-potential induced calcium signals. […]

SMILES	effect on number of possible postsynaptic targets (follower cells)	epileptiform events in imaged neurons
Nc1ccncc1 [4-AP]	increases the number of possible postsynaptic targets	produces spontaneous or evoked epileptiform events
CN1CCc2cc3c(cc2[C@H]1[C@@H]1OC(=O)c2c1ccc1c2OCO1)OCO3 [Bicuculine]	increases the number of possible postsynaptic targets	produces spontaneous or evoked epileptiform events
CC[N+](CC)(CC)CC [TEA]	increases the number of possible postsynaptic targets	produces spontaneous or evoked epileptiform events
